The values that follow come from ChEMBL document CHEMBL1201862, “PubChem BioAssay data set” (2004).

Assay [1] has as its target T1, Coagulation factor XII (Homo sapiens, UniProt P00748).
T1 sequence (P00748 whole entry): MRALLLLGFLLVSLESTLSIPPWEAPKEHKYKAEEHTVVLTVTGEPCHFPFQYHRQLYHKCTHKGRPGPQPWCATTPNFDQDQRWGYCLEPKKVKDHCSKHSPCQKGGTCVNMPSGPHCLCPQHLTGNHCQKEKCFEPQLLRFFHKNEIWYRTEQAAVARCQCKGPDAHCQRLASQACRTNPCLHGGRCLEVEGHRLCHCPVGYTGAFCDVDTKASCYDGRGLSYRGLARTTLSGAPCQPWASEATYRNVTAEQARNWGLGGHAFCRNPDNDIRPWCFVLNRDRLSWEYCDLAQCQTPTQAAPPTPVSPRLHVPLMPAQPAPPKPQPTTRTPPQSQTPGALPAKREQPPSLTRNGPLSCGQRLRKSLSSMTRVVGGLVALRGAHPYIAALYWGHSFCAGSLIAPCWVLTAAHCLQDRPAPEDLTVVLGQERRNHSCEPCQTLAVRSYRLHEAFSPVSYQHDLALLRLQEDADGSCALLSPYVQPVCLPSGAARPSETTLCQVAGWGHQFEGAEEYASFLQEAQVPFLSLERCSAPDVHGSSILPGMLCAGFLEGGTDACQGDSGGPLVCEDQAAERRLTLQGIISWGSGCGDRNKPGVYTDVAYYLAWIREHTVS
In words: activated coagulation factor XII inhibitor potency, concentration-effect curve, cell-free (AID 716). Type of assay: functional.

A short description of assay [2]: microbe, parasite or virus in culture. The assay is classed as functional. As to conditions: Mycobacterium tuberculosis.
Assay [3] concerns the target Eukaryotic translation initiation factor 4E (Mus musculus, UniProt P63073). Kind of assay: blockers of eIF4G binding by eIF4E – biochemical, TR-FRET, dose response (AID 855).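 Also: potency for disrupting eIF4E binding to eIF4GI seen as loss of FRET.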 The assay is classed as functional. A general note: Time-resolved FRET reads energy transfer from a long-lived donor to a nearby acceptor.
Assay [4] concerns the target G-protein coupled receptor 55 (Homo sapiens, UniProt Q9Y2T6). In words: inhibition of LPI-stimulated GPR55 beta-arrestin translocation – imaging, U2OS, beta-arrestin-GFP, LPI agonist, primary screen (AID 2013).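 Also: antagonist potency measured as reduced agonist-driven arrestin aggregation.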 Type of assay: functional.
In assay [5] the target is T2, Calpain-2 catalytic subunit (Sus scrofa, UniProt P43367).
T2 sequence (P43367 whole entry): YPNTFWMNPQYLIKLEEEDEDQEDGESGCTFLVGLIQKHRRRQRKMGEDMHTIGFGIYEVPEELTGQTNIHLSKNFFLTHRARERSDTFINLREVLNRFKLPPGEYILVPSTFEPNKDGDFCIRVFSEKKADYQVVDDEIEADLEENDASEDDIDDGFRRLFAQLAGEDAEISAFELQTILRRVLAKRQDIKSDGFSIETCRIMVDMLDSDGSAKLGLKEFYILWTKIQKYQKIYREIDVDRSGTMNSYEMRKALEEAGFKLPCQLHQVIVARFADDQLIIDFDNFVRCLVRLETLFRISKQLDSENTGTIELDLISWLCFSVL
In words: m-calpain protease blockers, concentration series – biochemical, fluorogenic peptide substrate, dose response (AID 1420). The assay is classed as functional.

The target in assay [6] is T3, Heat shock factor protein 1 (Mus musculus, UniProt P38532).
T3 sequence (P38532 whole entry): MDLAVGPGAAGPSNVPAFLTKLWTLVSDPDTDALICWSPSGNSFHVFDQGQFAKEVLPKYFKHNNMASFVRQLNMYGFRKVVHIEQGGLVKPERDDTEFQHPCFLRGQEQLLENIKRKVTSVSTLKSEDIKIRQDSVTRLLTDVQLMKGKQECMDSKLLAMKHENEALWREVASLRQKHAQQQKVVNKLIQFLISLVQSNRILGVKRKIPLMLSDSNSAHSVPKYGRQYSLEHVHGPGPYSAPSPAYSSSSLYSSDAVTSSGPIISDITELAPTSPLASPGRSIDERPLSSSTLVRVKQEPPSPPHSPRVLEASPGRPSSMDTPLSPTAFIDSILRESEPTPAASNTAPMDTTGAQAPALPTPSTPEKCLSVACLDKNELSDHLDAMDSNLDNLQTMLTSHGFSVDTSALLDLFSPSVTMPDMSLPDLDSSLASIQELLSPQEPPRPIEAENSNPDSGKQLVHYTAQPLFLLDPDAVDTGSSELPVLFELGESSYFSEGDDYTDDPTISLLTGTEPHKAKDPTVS
In words: decrease of HSF1-responsive luciferase luminescence – cell-based, NIH3T3, dose retest, confirmation (AID 2382).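 Also: NIH3T3 fibroblasts with HSF1-driven luciferase reporter stressed by proteasome inhibitor MG132; luminescence from HSF1-driven luciferase expression after 8 hours of MG132 stress.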 Type of assay: functional.

Assay [7] addresses Luciferin 4-monooxygenase (Photinus pyralis, UniProt P08659). In words: inhibition of purified Photinus pyralis luciferase – biochemical, luminescence, dose response (AID 1891).
Assay [8] is described as follows: Luminescence Cell-Based Dose Confirmation HTS to Identify Inhibitors of Platelet Dense Granule Release. [Related pubchem assays: 1663 (Primary HTS), 1678 (Summary of Project)]. The assay is classed as functional.
In assay [9] the test system is HeLa. In words: viability loss in HeLa cells – cell-based, 24 h, cherry-picked samples, cytotoxicity control, dose response (AID 504726).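 Also: potency for cytotoxicity as loss of luminescence signal.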 To be noted: Homo sapiens. The assay is classed as functional.
In assay [10] the target is T4, Microphthalmia-associated transcription factor (Homo sapiens, UniProt O75030).
T4 sequence (O75030 whole entry): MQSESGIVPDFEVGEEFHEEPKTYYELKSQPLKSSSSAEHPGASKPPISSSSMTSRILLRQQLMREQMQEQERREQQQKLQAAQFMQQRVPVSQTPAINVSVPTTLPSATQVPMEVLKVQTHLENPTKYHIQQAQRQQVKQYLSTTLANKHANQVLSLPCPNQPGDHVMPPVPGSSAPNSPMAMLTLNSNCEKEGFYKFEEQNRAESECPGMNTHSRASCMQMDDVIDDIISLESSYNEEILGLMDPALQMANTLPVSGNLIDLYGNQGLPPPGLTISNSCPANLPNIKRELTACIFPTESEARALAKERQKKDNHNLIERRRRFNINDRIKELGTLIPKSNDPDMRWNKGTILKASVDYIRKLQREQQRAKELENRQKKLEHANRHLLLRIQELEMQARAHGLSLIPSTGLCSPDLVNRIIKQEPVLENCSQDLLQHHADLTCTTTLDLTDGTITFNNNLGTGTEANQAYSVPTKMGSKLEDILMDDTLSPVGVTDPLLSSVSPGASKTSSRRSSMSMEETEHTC
Kind of assay: reducers of TRPM1 reporter luminescence, concentration series – cell-based, SK-MEL-5, cherry-picked, set 3, MITF inhibitor project, dose response (AID 493073).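 Also: SK-MEL-5 melanoma cells with luciferase driven by the MITF target TRPM1 promoter.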 Type of assay: functional.

Assay [11] deals with A-375. Kind of assay: proliferation inhibition in MITF-low A375 cells – cell-based, cherry-pick samples, set 2, counter-screen for MITF modulator project, dose response (AID 540335). The assay is classed as functional. As to conditions: Homo sapiens. On the technique in general: A counterscreen serves to expose hits that act by an unwanted route or on another target.
Assay [12] in a line: reduction of Shn3 3'UTR-driven luciferase in osteoblasts – cell-based, Clone20 osteoblasts, firefly luciferase, cherry-picked, dose response (AID 624132).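 Also: firefly luciferase luminescence from reporter carrying the Shn3 3'UTR in osteoblasts.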 Type of assay: functional.
The nature of assay [13]: loss of viability in HepG2 cells – cell-based, CellTiter-Glo, cherry-picked, cytotoxicity control for Shn3 inhibitor project, dose response (AID 624134). The assay is classed as functional. (In ATP-based viability assays light output follows the ATP content of the culture.)
Assay [14] is described as follows: non-specific 3'UTR reporter inhibition in Clone20-Shn3RL – cell-based, Renilla luciferase, cherry-picked, counter-screen for Shn3 inhibitor project, dose response (AID 624133). The assay is classed as functional.
Assay [15] is described as follows: A549 cell cytotoxicity, dose response, cytotoxicity control, plate reader, cherry-pick, antagonist series (AID 743412). The assay is classed as functional, cell-based.
The nature of assay [16]: blockers of bursicon-stimulated LGR2 cAMP reporter – cell-based, HEK293, CRE-luciferase reporter, cherry pick, set 2, dose response (AID 743343).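 Also: transfected cells were stimulated with diluted bursicon conditioned medium after compound addition.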 The assay is classed as functional.
Assay [17] in a line: blockade of melanocortin 4 receptor signaling – cell-based, plate reader, cherry pick, counter-screen for LGR2 antagonist project, dose response (AID 743444).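 Also: transfected HEK 293 cells stimulated with alpha-MSH peptide; potency of inhibitors of the alpha-MSH evoked signal.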 Type of assay: functional.
Assay [18] in a line: viability loss in HEK293 cells – cell-based, plate reader, cherry-picked samples, cytotoxicity control, dose response (AID 743446). Type of assay: functional.
Assay [19] concerns the target Glyceraldehyde-3-phosphate dehydrogenase (Homo sapiens, UniProt P04406).
The target of assay [20] is T5, Alkaline phosphatase, tissue-nonspecific isozyme (Homo sapiens, UniProt P05186).
T5 sequence (P05186 whole entry): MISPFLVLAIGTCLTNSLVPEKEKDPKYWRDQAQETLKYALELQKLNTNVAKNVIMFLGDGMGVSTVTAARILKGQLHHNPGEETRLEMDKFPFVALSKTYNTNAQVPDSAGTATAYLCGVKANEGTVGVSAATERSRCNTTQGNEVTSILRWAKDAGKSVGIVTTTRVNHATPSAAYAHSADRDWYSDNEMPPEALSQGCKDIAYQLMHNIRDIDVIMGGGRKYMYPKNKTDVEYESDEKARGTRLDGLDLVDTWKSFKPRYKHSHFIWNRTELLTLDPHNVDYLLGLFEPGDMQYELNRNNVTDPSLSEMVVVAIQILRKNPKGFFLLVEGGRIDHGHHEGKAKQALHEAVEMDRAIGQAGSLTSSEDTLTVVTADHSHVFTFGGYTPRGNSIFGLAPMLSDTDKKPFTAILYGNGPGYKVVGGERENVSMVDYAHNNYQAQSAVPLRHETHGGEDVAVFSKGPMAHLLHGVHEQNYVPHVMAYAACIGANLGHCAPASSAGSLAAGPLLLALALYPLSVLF
In words: potency against alkaline phosphatase TNAP – biochemical, luminescent, dose response, SAR follow-up (AID 1056).

Calls of active or inactive are those of the source.

Sequence of Eukaryotic translation initiation factor 4E (P63073 whole entry): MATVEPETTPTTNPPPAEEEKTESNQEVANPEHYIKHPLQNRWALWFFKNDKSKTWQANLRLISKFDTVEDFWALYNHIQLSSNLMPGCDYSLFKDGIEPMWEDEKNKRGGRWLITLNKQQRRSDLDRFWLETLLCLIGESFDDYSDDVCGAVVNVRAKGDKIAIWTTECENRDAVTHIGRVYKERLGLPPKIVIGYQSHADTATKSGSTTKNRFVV
Sequence of G-protein coupled receptor 55 (Q9Y2T6 whole entry): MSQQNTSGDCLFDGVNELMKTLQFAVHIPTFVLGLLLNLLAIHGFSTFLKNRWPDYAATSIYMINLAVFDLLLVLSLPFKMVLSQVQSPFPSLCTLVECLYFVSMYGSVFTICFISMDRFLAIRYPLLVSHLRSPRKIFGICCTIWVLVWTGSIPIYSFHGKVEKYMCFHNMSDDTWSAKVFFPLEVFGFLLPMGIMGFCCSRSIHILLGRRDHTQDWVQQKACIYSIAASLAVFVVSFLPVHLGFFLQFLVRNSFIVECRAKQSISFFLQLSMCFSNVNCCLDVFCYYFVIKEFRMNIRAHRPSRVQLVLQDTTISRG
Sequence of Glyceraldehyde-3-phosphate dehydrogenase (P04406 whole entry): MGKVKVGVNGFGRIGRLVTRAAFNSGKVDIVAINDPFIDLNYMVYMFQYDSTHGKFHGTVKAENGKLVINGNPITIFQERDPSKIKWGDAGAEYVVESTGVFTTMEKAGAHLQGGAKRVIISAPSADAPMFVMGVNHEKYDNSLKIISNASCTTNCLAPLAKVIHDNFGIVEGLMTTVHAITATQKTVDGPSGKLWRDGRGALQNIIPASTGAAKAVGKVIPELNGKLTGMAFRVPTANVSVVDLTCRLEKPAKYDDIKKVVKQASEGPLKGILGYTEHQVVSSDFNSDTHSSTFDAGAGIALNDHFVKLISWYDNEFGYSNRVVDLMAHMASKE
Sequence of Luciferin 4-monooxygenase (P08659 whole entry): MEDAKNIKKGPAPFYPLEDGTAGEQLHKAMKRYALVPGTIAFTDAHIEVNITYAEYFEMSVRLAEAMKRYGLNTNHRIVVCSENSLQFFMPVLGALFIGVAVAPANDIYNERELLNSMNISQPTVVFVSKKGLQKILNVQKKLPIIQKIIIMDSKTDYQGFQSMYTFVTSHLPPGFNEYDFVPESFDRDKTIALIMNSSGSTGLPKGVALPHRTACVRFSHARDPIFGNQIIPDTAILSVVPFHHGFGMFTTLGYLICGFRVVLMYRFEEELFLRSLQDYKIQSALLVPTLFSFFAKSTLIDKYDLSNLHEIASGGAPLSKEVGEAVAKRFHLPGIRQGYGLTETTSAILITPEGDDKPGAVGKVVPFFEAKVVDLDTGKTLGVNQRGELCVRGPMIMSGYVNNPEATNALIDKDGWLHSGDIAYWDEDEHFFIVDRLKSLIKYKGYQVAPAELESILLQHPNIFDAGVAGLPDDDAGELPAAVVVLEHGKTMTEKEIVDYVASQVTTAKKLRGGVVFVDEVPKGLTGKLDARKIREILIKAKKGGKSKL

Take `CC(=O)c1c(C)nn(CC(O)COc2ccc3c(c2)CCC3)c1C` (configuration not stated): the IC50 (usually the concentration at which inhibition is half-maximal) in [1] was > 50 µM (inactive).
The same measure, in the same setting: as for `CCOC(=O)N1CCN(C(=O)C2CC(c3ccc(F)cc3)=NO2)CC1` (configuration not stated), the figure is > 50 µM (inactive).
Turning to `CCCCOCCCn1c(-c2ccco2)nc2nc3ccccc3nc21`, the CC50 in assay [2] was > 40 µM (active). Also, the IC50 in assay [3] is > 64 µM (inactive).
Consider `c1ccc(CCNc2ncnc3scc(C4COc5ccccc5O4)c23)cc1` (configuration not stated), for which the IC50 is 3.59 µM (active) in assay [4] and 10.4 µM (not active) in assay [5].
Take `O=C1CC(N2CCN(Cc3ccc4c(c3)OCO4)CC2)C(=O)N1c1cccc(Cl)c1` (configuration not stated): in assay [3], the IC50 is > 64 µM (inactive).
With `COc1cc(SC)ccc1C(=O)Nc1nc(C)cs1`, the EC50 (in general, the concentration at which the effect is half-maximal) in [6] was 845 nM (active); in [7], 511 nM (active); in assay [8] it was 7.22 µM (active). Besides, the AC50 (commonly the concentration at which the activity in the assay is half-maximal) in assay [9] was 42.3 µM (active); in assay [10], 4.81 µM (active); in assay [11], 47.4 µM (active); in assay [12] it was 7.09 µM (active); in [13], > 70 µM (inactive); in assay [14], 35.2 µM (active). For the same compound, the AC50 in assay [15] is 43.9 µM (active); in [16], 490 nM (active); in [17], 491 nM (active); in assay [18] it was 24.9 µM (active).
Take `Cc1nc2ccc(S(=O)(=O)NC(C(=O)Nc3nc4ccc(Cl)cc4s3)C(C)C)cc2s1` (configuration not stated): the concentration for half-maximal inhibition (IC50) in assay [4] is 0.894 µM (active).
`CCOc1ccc(OCC)c(S(=O)(=O)Nc2cccnc2)c1`: the IC50 in [19] is > 100 µM (not active); in assay [20], 4.44 µM (active).
In the case of `NC1=NC(=O)/C(=C\c2ccsc2)S1`, in [3], the IC50 is 50 µM (inactive).
With `Cc1noc(C)c1COC(=O)Cc1ccc(Cl)cc1`, the IC50 in assay [1] was > 50 µM (inactive).
`O=C(O)c1cc(-c2ccc(F)cc2)n[nH]1`: the values for the IC50 in [19] and in assay [20] were > 100 µM (not active) and 4.74 µM (active), respectively.
